Consider one cell line from the supplement of paper PMC10307832.

Holding throughout (test): relative viability (nuclei count vs DMSO), 5 days (fraction); higher = more cells survive
Compound in experiment [1]: O=C(Nc1c[nH]nc1-c1nc2ccc(CN3CCOCC3)cc2[nH]1)NC1CC1 [AT9283] + COc1cc2c(Oc3ccc(NC(=O)C4(C(=O)Nc5ccc(F)cc5)CC4)cc3F)ccnc2cc1OCCCN1CCOCC1 [Foretinib] (partner 0.25 µM)
The method, boiled down:
(§1)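 Five library-drug doses in √10 steps were combined with a fixed anchor-drug dose, or a single drug was given alone, by pin tool to lung cancer cell lines in 1536-well plates the day after seeding. Nuclei were stained and counted after 5 days. Relative viability is the nuclei count in treated wells over that in vehicle wells, taken as the median of duplicate plates.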

Compound in experiment [2]: C#Cc1cccc(Nc2ncnc3cc(OCCOC)c(OCCOC)cc23)c1 [Erlotinib] + Nc1nc2[nH]cc(CCc3ccc(C(=O)N[C@@H](CCC(=O)O)C(=O)O)cc3)c2c(=O)[nH]1 [Pemetrexed] (partner 0.2 µM)
An outline of the steps:
as §1

Compound in experiment [3]: O=C(Nc1c[nH]nc1-c1nc2ccc(CN3CCOCC3)cc2[nH]1)NC1CC1 [AT9283] + COc1cccc2cc(-c3nc([C@H]4CC[C@H](C(=O)O)CC4)n4ncnc(N)c34)[nH]c12 [OSI-027] (partner 0.5 µM)
An outline of the steps:
as §1

Compound in experiment [4]: O=C(Nc1c[nH]nc1-c1nc2ccc(CN3CCOCC3)cc2[nH]1)NC1CC1 [AT9283] + O=C(CCCCCCC(=O)Nc1ccccc1)NO [Vorinostat] (partner 1 µM)
An outline of the steps: as §1

Compound in experiment [5]: C#Cc1cccc(Nc2ncnc3cc(OCCOC)c(OCCOC)cc23)c1 [Erlotinib] + NC(=O)Nc1cc(-c2cccc(F)c2)sc1C(=O)N[C@H]1CCCNC1 [AZD7762] (partner 0.2 µM)
An outline of the steps:
as §1

As for NCI-H441, the relative viability in experiment [1] (first compound 0.003 µM) worked out at 1.02; in experiment [1] (first compound 0.03 µM), 0.847; in experiment [1] (first compound 0.09487 µM), 0.396; in experiment [1] (first compound 0.3 µM), 0.301; in experiment [2] (first compound 0.02 µM), 0.284; in experiment [2] (first compound 0.2 µM), 0.275. Further, the relative viability in experiment [2] (first compound 0.6325 µM) was determined as 0.259; in experiment [2] (first compound 2 µM), 0.275; in experiment [3] (first compound 0.003 µM) it was 0.532; in experiment [3] (first compound 0.03 µM), 0.574; in experiment [3] (first compound 0.09487 µM), 0.321; in experiment [3] (first compound 0.3 µM), 0.333. Besides, the relative viability in experiment [4] (first compound 0.003 µM) came to 0.698; in experiment [4] (first compound 0.03 µM), 0.499; in experiment [4] (first compound 0.09487 µM), 0.669; in experiment [4] (first compound 0.3 µM), 0.307; in experiment [5] (first compound 0.02 µM) it was 1.2; in experiment [5] (first compound 0.2 µM), 1.06. The relative viability in experiment [5] (first compound 0.6325 µM) stood at 1.1; in experiment [5] (first compound 2 µM), 1.11.
